Converted amounts (≈) assume the structure as drawn. “Also recorded” adds a separate entry of the source. Read-outs that look alike come from different tables or passages of the source.
Legend:
[1] = tested on: A549 cells; assay: MTT assay, inhibition of tumour cell growth; type: cell-based, human; conditions: mean ± s, n = 3
Description: (§1) The tumour cell suspension in logarithmic growth phase, containing about 5 × 10^3 cells, was taken and seeded onto a 96-well plate and gently shaken to disperse the cells evenly at the bottom of the plate. The cells were incubated in a constant temperature (37 °C) incubator for 24 h. The old medium was discarded, and 100 μL of the prepared working solution of piperidinone monocarbonyl curcumin analogues at different concentrations was added, and the cells were incubated in a constant temperature incubator for 24 h. Blank medium wells, blank cell wells, and 0.9% DMSO (highest content) wells were set up, with 6 multi-well and 3 multi-plates for each concentration. The discarded old medium was absorbed, and 100 μL of 10% 5 mg/mL MTT working solution was added to each well (operated away from light) and placed in a cell incubator for further incubation for 4 h. The old medium was discarded, and 100 μL of DMSO was added to each well and shaken in an air shaker at 100 RPM for 10 min. The absorbance of the OD value was measured at 490 nm by a multifunctional microplate analyzer. According to Formula (1), the inhibition rates of different piperidones monocarbonyl curcumin analograms on 4 tumour cells were calculated, and IC50 was calculated by GraphPad Prism 8.0:Inhibition rate (%) = (OD blank cell group − OD administration group)/OD blank cell group(1)

[2] = tested on: HepG2 cells; assay: MTT assay, inhibition of tumour cell growth; type: cell-based, human; conditions: mean ± s, n = 3
Description: as §1

[3] = tested on: Hela cells; assay: MTT assay, inhibition of tumour cell growth; type: cell-based, human; conditions: 24 h, mean ± s, n = 3
Description: as §1

[4] = tested on: MCF-7 cells; assay: MTT assay, inhibition of tumour cell growth; type: cell-based, human; conditions: mean ± s, n = 3
Description: as §1

[5] = tested on: MRSA; assay: Broth microdilution inhibition test and MIC; type: cell-based, methicillin-resistant Staphylococcus aureus; conditions: for MIC: broth microdilution
Description: Then, the MIC values of 100% compounds at the maximum inhibitory concentration were obtained by the broth microdilution method. The specific experiments are as follows: First, in the 96-well plate, add 100 μL of compound working solution from column 2 to column 8, with concentrations decreasing from high to low, repeating each concentration 6 times. Add 100 μL of NB nutrient broth containing 1% DMSO to column 9, and 100 μL of blank NB nutrient broth to columns 10 and 11. Then, add 10 μL of bacterial suspension to each well from columns 2 to 10. Place the 96-well plate in a 37 °C incubator for 16 h at 100 rpm and measure the absorbance at 600 nm by microplate reader. Columns 2 to 9 represent the drug treatment group, column 10 is the negative control group, and column 11 is the blank control group. The minimum concentration that inhibits bacterial growth is the MIC value of the compound: Bacterial inhibition rate (%) = (OD administration − OD control)/(ODcontrol − OD blank) (3)

[6] = tested on: MRSA; assay: AGAR plate zone of inhibition test (filter paper); type: cell-based, methicillin-resistant Staphylococcus aureus; conditions: 160 μmol/L, 6 mm filter paper, 16 h, mean ± s; for zone of inhibition at 160 µM: Staphylococcus aureus, n = 3, read-out: Diameter of Bacteriostatic Zone
Description: Based on the results of previous experiments, the promising compounds were selected, and the size of the inhibition zone at 160 μmol/L was determined. The specific operation was as follows: The nutrient agar medium, after high temperature sterilization, was poured into about 20 mL per 9 cm plate in an ultra-clean bench and naturally cooled and solidified. Each plate was evenly coated with 100 μL MRSA bacterial suspension. The filter paper of 6 mm diameter soaked in the drug solution was dried by flame evaporation, and four tablets were placed in parallel into each plate, cultured in a constant temperature incubator at 37 °C for 16 h, and the size of the inhibition zone was measured.

[7] = tested on: L02 cells; assay: MTT assay, toxicity to human normal liver cells; type: cell-based; conditions: mean ± s, n = 3
Description: The cells were passaged to the fourth generation of L02 cells, and the cell suspension containing about 5 × 10^3 cells was added to each well of the 96-well plate and cultured in a cell culture incubator for 24 h. The old medium was discarded, and different concentrations of liquid medicine (6 porous and 3 plates for each concentration) were added and incubated for 24 h. The old medium was discarded, 10% of 5 mg/mL MTT working solution was added in the dark, and the cells were incubated in a cell incubator for 4 h. The old medium was discarded, 100 μL DMSO was added to each well, and 100 RPM was oscillated on an air shaker for 10 min. The OD value was measured at 490 nm with a multifunctional microplate reader. According to the OD value, the inhibition rate of different piperidone monocarbonyl curcumin analogues on L02 cells was calculated according to Formula (1), and IC50 was calculated by Graph Pad Prism 8.0.

[8] = tested on: A549 cells; assay: Flow cytometry apoptosis (Annexin V/PI); type: cell-based, human; conditions: 24 h
Description: The A549 cells in logarithmic growth phase were inoculated in 6-well plates at 1 × 10^6 cells. After resting in the incubator for 24 h, the cells were treated with different concentrations of drugs. The blank control group was added with the medium with the highest concentration of DMSO. After 24 h of culture, cells were collected, washed with PBS, transferred to a flow tube, and resuspended with 100 μL of 1 × Annexin V conjugate. Add 4 μL YF4/88-Annexin N and 5 μL PI working solution. The cells were incubated in the dark at room temperature for 10 min, transferred to a flow cytometer tube, added with 200 μL of 1 × Annexin V conjugate, and immediately detected by flow cytometry.

[9] = tested on: A549 cells; assay: Cell wound scratch assay (migration); type: cell-based, human; conditions: 6 h; high, medium, and low concentrations
Description: A549 cells in logarithmic phase were digested with 0.25% trypsin and blown to single cell suspension with a dropper. The cell density was adjusted to 5 × 10^5 cells/mL. The cells were inoculated on 6-well plates, 2 mL per well, and cultured in a cell incubator at 37 °C, 5% CO2, and saturated humidity for 24 h until the gaps were basically fused. A 10 μL micro pipette tip was used to scratch vertically in a 6-well plate. After washing with PBS solution 3 times, the drug-containing medium was added, 2 mL per well, and three wells were set in each group. The culture plates were placed in a 5% CO2 incubator at 37 °C for 6 h and 24 h and observed and photographed with an inverted fluorescence microscope. The images were obtained by NIS Elements Viewer 4.2.0, and the scratch area and width were calculated. The cell migration rate was calculated by Formula (2):[Cell migration rate (%) = (0 h scratch area − scratch area at different times)/0 h scratch area × 100%](2)

[10] = tested on: A549 cells; assay: Cell morphology by inverted microscope; type: cell-based, human; conditions: 5 μmol/L, 24 h
Description: The cells were inoculated in a 6-well plate, and about 1 × 10^6 A549 cells in the logarithmic growth phase were inoculated in each well. After the cells were cultured in a constant temperature incubator for 24 h, the old medium was discarded, and five kinds of piperidone monocarbonyl curcumin analogue solution (5, 10, and 20 μmol/L), curcumin (10, 20, and 40 μmol/L), and 0.9% DMSO were added as the blank control group for 24 h, and then the cell morphology was observed by inverted microscope (200×).

[11] = tested on: ERK (extracellular regulated protein kinases); assay: Western blot, ERK level in A549 cells; type: cell-based, human; conditions: 10, 5, 2.5 μmol/L, 24 h
Description: A549 cells in logarithmic growth phase were seeded in 6-well plates at 1 × 10^6 cells/mL per well. The cells were cultured overnight in an incubator. Different concentrations of drug-containing medium of 2,5-2Cl, 2Br-5Cl, 2-Cl, 2-F, benzaldehyde ([…]), curcumin (20 μmol/L), and cisplatin (30 μmol/L) were added, and the blank control […] The RIPA cell lysis buffer containing protease inhibitors was added to the Petri dish to collect the proteins of each experimental group, and the supernatant was collected as a protein sample after ultrasonic centrifugation. Protein quantification was performed by the BCA method. A total of 20 μg protein was separated by 10% SDS-PAGE, and then the protein was transferred to a PVDF membrane. The membrane was blocked with 5% skim milk for 1 h, and the corresponding primary antibody was incubated at 4 °C overnight. After washing the membrane three times with TBST, the bands were incubated with the corresponding secondary antibodies at room temperature for 1 h. After cleaning the membrane with TBST 3 times, the darkroom was developed with ECL luminescence. Using GAPDH as an internal reference, the protein bands were analyzed by ImageJ 1.8.0.

[12] = tested on: MRSA; assay: Time inhibition curve against MRSA; type: cell-based, methicillin-resistant Staphylococcus aureus; conditions: 160 μmol/L and 80 μmol/L
Description: Based on the results of previous experiments, the promising compounds were selected. According to the administration method under ‘2.3.2’, the absorbance values of the promising compounds at 600 nm at different concentrations of bacteria at 4, 14, 18, and 24 h were measured by a microplate reader, and the inhibitory effect of the compounds on MRSA at different time points was calculated. The time inhibition curve of the compound against MRSA was made with the abscissa as the time and the ordinate as the bacterial inhibition rate.

Row | Compound | IC50 ([1]; 24 h) [µM] | IC50 ([2]; 24 h) [µM] | IC50 [3] [µM] | IC50 ([4]; 24 h) [µM] | further results
1 | 3,5-Bis(4-bromo-benzyl)-4-piperidinone | 15.5 ± 2.35 | 7.15 ± 4.62 | > 40 | 19.7 ± 3.68 | –
2 | O=C1C(=Cc2ccc(Br)cc2F)CNCC1=Cc1ccc(Br)cc1F [4Br-2F] | 20.2 ± 4.15 | 16.4 ± 1.97 | 18.7 ± 3.66 | 28.5 ± 2.91 | –
3 | NC[C@H]1O[C@H](O[C@H]2[C@H](O)[C@@H](O[C@H]3O[C@H](CO)[C@@H](O)[C@H](N)[C@H]3O)[C@H](N)C[C@@H]2N)[C@H](N)C[C@@H]1O [Tobramycin, reference compound] | – | – | – | – | inhibition at 70 µM ([5]; Staphylococcus aureus, MRSA, 70 μmol/L, read-out: Inhibition rate of MRSA): < 100%; inhibition at 80 µM ([5]; Staphylococcus aureus, MRSA, 80 μmol/L, read-out: Inhibition rate of MRSA): 100%; inhibition at 160 µM ([5]; Staphylococcus aureus, MRSA, 160 μmol/L): 100%; MIC ([5]; Staphylococcus aureus, MRSA, read-out: MIC): 80 µM (≈ 37.4 µg/mL); zone of inhibition at 160 µM [6]: 10.7 ± 0.58 mm
4 | O=C1C(=Cc2cccc(Br)c2)CNCC1=Cc1cccc(Br)c1 [3-Br] | > 40 | 18.3 ± 3.44 | > 40 | 22.5 ± 3.55 | –
5 | 3,5-Bis(2-bromo-benzyl)-4-piperidone | 16.6 ± 1.84 | 7.03 ± 3.24 | 12.3 ± 2.67 | > 40 | –
6 | N.N.[Cl][Pt][Cl] [Cisplatin solution, reference compound] | 41.2 ± 3.49 | 27.7 ± 3.26 | 59.4 ± 1.7 | 55.2 ± 4.09 | IC50 ([7]; 24 h): 48.4 ± 3.83 µM; Proportion of normal cells (flow cytometry) ([8]; 30 μmol/L): 86.27%
7 | CC1(C)S[C@@H]2[C@H](NC(=O)Cc3ccccc3)C(=O)N2[C@H]1C(=O)O [Penicillin] | – | – | – | – | zone of inhibition at 160 µM [6]: 8.67 ± 0.58 mm
8 | O=C1C(=Cc2cc(Cl)ccc2Br)CNCC1=Cc1cc(Cl)ccc1Br [2Br-5Cl] | 4.75 ± 1.51 | 8.42 ± 1.99 | 6.24 ± 2.46 | 6.36 ± 1.28 | IC50 ([7]; 24 h): 58.2 ± 2.79 µM; Cell migration rate vs blank control (0.9% DMSO) [9]: no statistical difference; Cell morphology [10]: most of the cells became round and loose; ERK protein level vs control group [11]: significantly lower; also recorded: most obvious
9 | 3,5-Bis(3,5-dibromo-benzyl)-4-piperidone [3,5-2Br] | > 40 | > 40 | 12.8 ± 3.18 | > 40 | –
10 | O=C1C(=Cc2ccccc2Cl)CNCC1=Cc1ccccc1Cl [2-Cl] | 4.81 ± 1.69 | 8.53 ± 2.61 | 6.61 ± 1.93 | 5.7 ± 1.21 | IC50 ([7]; 24 h): 70.5 ± 1.85 µM; Cell migration rate vs blank control (0.9% DMSO) [9]: no statistical difference; Cell morphology [10]: most of the cells became round and loose; Inhibition rate of MRSA over time ([12]; 18 h): 100%; Inhibition rate of MRSA over time ([12]; 24 h): 87.02%; Inhibition rate of MRSA ([5]; 60 μmol/L): less than 100%; Inhibition rate of MRSA ([5]; 70 μmol/L): 100%; Inhibition of MRSA ([5]; 160 μmol/L): 100%; MIC ([5]; MRSA): 70 µM (≈ 24.1 µg/mL); Diameter of Bacteriostatic Zone ([6]; n = 3): 14.67 ± 0.58 mm; ERK protein level vs control group [11]: significantly lower
11 | O=C1C(=Cc2ccc(Cl)cc2Br)CNCC1=Cc1ccc(Cl)cc1Br [2Br-4Cl] | 18.2 ± 3.15 | 27.3 ± 2.64 | 23.4 ± 3.34 | > 40 | –
12 | O=C1C(=Cc2ccc(Cl)c(Cl)c2)CNCC1=Cc1ccc(Cl)c(Cl)c1 [3,4-2Cl, 3,5-Bis(3,4-dichlorobenzylidene)-4-piperidone] | – | – | – | – | IC50 ([1]; Homo sapiens, A549, 24 h): 11.9 ± 4.64 µM; IC50 ([2]; Homo sapiens, HepG2, 24 h): > 40 µM; IC50 ([3]; Homo sapiens, HeLa): > 40 µM; IC50 ([4]; Homo sapiens, MCF7, 24 h): > 40 µM
13 | O=C1C(=Cc2ccc(F)cc2Br)CNCC1=Cc1ccc(F)cc1Br [2Br-4F] | 21.8 ± 3.68 | 18.3 ± 4.38 | > 40 | > 40 | –
14 | COc1cc(/C=C/C(=O)CC(=O)/C=C/c2ccc(O)c(OC)c2)ccc1O [Curcumin] | – | – | – | – | IC50 ([7]; Homo sapiens, L02, 24 h): 30.4 ± 1.04 µM; Proportion of normal cells (flow cytometry) ([8]; 20 μmol/L): 84.27%; IC50 ([1]; Homo sapiens, A549, 24 h): 33.5 ± 3.83 µM; IC50 ([2]; Homo sapiens, HepG2, 24 h): 17.6 ± 3.43 µM; IC50 ([3]; Homo sapiens, HeLa): 29.2 ± 2.57 µM; IC50 ([4]; Homo sapiens, MCF7, 24 h): 39.2 ± 2.81 µM
15 | O=C1C(=Cc2cc(Br)ccc2Cl)CNCC1=Cc1cc(Br)ccc1Cl [5Br-2Cl] | 14.2 ± 3.85 | 29.3 ± 2.94 | > 40 | > 40 | –
